# Measurements: patent US10815276B2, “Cell penetrating peptides and methods of making and using thereof” (Entrada Therapeutics, Inc., priority 2014, dated 2020)
# Starred links: 1 amine or outer side, 2 acyl side, 3 side chain; linkers in the order of their positions; H or OH if unused. Positions of bridges follow the written chain, without caps; N, C: chain ends. Non-standard residues stand in square brackets, D forms with d. Residues, ends and D or L forms follow the SMILES beside them. Trimesoyl = O=C(c1cc(C(=O)[*:2])cc(C(=O)[*:3])c1)[*:1]; 2Nal = N[C@@H](Cc1ccc2ccccc2c1)C(=O)O; NMeF = CN[C@@H](Cc1ccccc1)C(=O)O; Pip = O=C(O)[C@@H]1CCCCN1; Dap = NC[C@H](N)C(=O)O; Sar = CNCC(=O)O
# Key:
# PTP1B = target: T1, PTP1B (Homo sapiens, UniProt P18031); test: PTP inhibition assay (pNPP); format: biochemical; settings: pNPP 0-24 mM; read-out: K1 (competitive inhibition constant)
# T1 construct: The gene coding for the catalytic domain of PTP1B (amino acids 1-321) was amplified; made in house; host or cells: prokaryotic vector pET-22b(+)-ybbR
# Description: PTP assays were performed in a quartz microcuvette (total volume 150 μL). The reaction mixture contains 100 mM Tris-HCl, pH 7.4, 50 mM NaCl, 2 mM EDTA, 1 mM TCEP, 0-1 μM of PTP inhibitor, and 500 μM para-nitrophenyl phosphate (pNPP). The enzymatic reaction was initiated by the addition of PTP (final concentration 15-75 nM) and monitored continuously at 405 nm on a UV-VIS spectrophotometer. Initial rates were calculated from the reaction progress curves (typically <60 s). The half-maximal inhibition constant (IC50) was defined as the concentration of an inhibitor that reduced the enzyme activity to 50% and was obtained by plotting the rates (V) against the inhibitor concentration [I] and fitting the data against the equation
# [formula] where V0 is the enzymatic reaction rate in the absence of inhibitor. […] The reaction rate (V) was plotted against the pNPP concentration ([S]) and fitted against the equation
# [formula] to obtain the Michaelis constant K. The Ki value was obtained by plotting the K values against the inhibitor concentration [I] and fitted to equation
# [formula] where K0 is the Michaelis constant in the absence of inhibitor ([I]=0).
# Pin1 [1] = target: T2, Pin1 (Homo sapiens, UniProt Q13526, S16A/Y23A); test: Fluorescence anisotropy binding to Pin1
# T2 construct: The full-length human S16A/Y23A mutant Pin1 was expressed and purified from E. coli; made in house
# Description: The gene coding for the catalytic domain of PTP1B (amino acids 1-321) was amplified by the polymerase chain reaction using PTP1B cDNA as template and oligonucleotides 5′-[…]-3′ and 5′-[…]-3′ as primers. […] Expression and purification of the ybbR-tagged PTP1B were carried out as previously described (Ren, L et al. Biochemistry 2011, 50, 2339-2356). […] The reaction mixture was passed through a G-25 fast-desalting column equilibrated in 30 mM HEPES, pH 7.4, 150 mM NaCl to remove any free dye molecules. The full-length human S16A/Y23A mutant Pin1 was expressed and purified from E. coli as previously described (Liu, T et al. J. Med. Chem. 2010, 53, 2494-2501).
# FA experiments were carried out by incubating 100 nM FITC-labeled peptide with varying concentrations of protein in 20 mM HEPES (pH 7.4), 150 mM NaCl, 2 mM magnesium acetate, and 0.1% bovine serum albumin (BSA) for 2 h at room temperature. The FA values were measured on a Molecular Devices Spectramax M5 plate reader, with excitation and emission wavelengths at 485 and 525 nm, respectively. Equilibrium dissociation constants (KD) were determined by plotting the FA values as a function of protein concentration and fitting the curve to the following equation:
# [formula] where Y is the FA value at a given protein concentration x, L is the peptide concentration, Qb/Qf is the correction factor for fluorophore-protein interaction, Amax is the maximum FA value when all of the peptides are bound to protein, while Amin is the minimum FA value when all of the peptides are free. FA competition assay was performed by incubating 100 nM FITC-labeled Pin1 inhibitor 5 with 1 μM Pin1, followed by the addition of 0-5 μM unlabeled inhibitor. The FA values were measured similarly on a pate reader. IC50 values were obtained by plotting the FA values against the competitor concentration and curve fitting using the four-parameter dose-response inhibition equation (Prism 6, GraphPad).
# Pin1 [2] = target: T2, Pin1; test: Pin1 binding by FA (FITC-labeled peptides); settings: FITC-labeled peptide, FA; read-out: KD
# Jurkat cells = test: In cellulo fluorimetric caspase assay; format: cell-based; settings: staurosporin-treated cells, 5 μM peptide, 10-h period
# Description: 100 μL of Jurkat cell suspension (5×10^5 cells/mL) was seeded in 96-well plate one hour prior to the experiment. Ten μL of staurosporine stock solution (10 μM) was added into half of the wells to induce apoptosis, while 10 μL of media was added to the other wells. After 1 h incubation, caspase-3 fluorogenic substrates were added to the cells to a final concentration of 5 μM. The fluorescence of the released coumarin was measured on the Spectramax M5 plate reader with excitation and emission wavelengths at 360 and 440 nm at various times points (0-6 h). The fluorescence unit (FU) increases between induced and uninduced cells were plotted against the time to present caspase-3 activities measured using various fluorogenic substrates in living cell in real-time. Three independent sets of experiments, each performed in triplicate, were conducted.
# Jurkat cells were pretreated with the kinase inhibitor staurosporin to induce caspase activities and thus apoptosis (Belmokhtar, C A et al. Biochem. J. 1996, 315, 21). These cells were then incubated with peptides 3-7 and the amount of Amc released was monitored at various time points (0-10 h). […] Peptide 4 produced the fastest fluorescence increase, reaching 459 fluorescence units (FU), followed by peptides 7 and 6. […] This slow rate of AMC release can be attributed to hydrolysis by other intracellular proteases and peptidases. Consistent with this interpretation, pretreatment of Jurkat cells with a pancaspase inhibitor Z-VAD(OMe)-FMK (Slee, E A et al. Biochem J. 1996, 315, 21) followed by incubation with peptide 4 released AMC at a rate that was similar to that of peptide 5 alone. One explanation of the above observations is that both peptides 4 and 5 can enter the cell interior efficiently, but only peptide 4 can be converted into the linear caspase substrate inside the cells.
# [3] = Serum stability test (25% human serum); format: in vitro ADME; settings: 37° C.
# Description: The stability tests were carried by modifying a previously reported procedure (Nguyen, L T et al. […] At various time points (0-6 h), 200-μL aliquots were withdrawn and mixed with 50 μl of 15% trichloroacetic acid and incubated at 4° C. overnight. The final mixture was centrifuged at 15,000 rpm for 10 min in a microcentrifuge, and the supernatant was analyzed by reversed-phase HPLC equipped with a C18 column (Waters). The amount of remaining peptide (%) was determined by integrating the area underneath the peptide peak (monitored at 214 nm) and compared with that of the control reaction (no serum).
# HeLa cells = test: FACS uptake of FITC-labeled peptides; format: cell-based, human; settings: 5 μM, 2 h
# T2 sequence (Q13526 whole entry S16A/Y23A): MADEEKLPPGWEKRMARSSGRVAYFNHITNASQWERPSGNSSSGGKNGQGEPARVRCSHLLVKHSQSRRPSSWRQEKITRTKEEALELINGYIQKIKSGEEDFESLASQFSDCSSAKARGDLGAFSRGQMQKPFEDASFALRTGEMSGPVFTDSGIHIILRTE
# T1 sequence (P18031 1-321): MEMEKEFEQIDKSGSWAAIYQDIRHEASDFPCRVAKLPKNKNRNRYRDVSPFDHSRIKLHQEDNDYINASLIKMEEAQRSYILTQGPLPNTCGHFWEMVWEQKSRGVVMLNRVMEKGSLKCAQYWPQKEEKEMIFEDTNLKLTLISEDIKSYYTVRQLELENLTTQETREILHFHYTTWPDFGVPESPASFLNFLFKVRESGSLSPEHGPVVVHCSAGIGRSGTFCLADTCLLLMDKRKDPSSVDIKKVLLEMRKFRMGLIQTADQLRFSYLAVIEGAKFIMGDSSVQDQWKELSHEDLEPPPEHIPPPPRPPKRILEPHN
molecule,measurement,setting,value
"C[C@@H]1NC(=O)[C@H](CCCNC(=N)N)NC(=O)[C@H](Cc2ccc3ccccc3c2)NC(=O)[C@@H]2CCCCN2C(=O)[C@@H]([C@H](C)O)NC(=O)CN(C)C(=O)[C@@H](C)NC(=O)c2cc3cc(c2)C(=O)NC[C@H](NC(=O)[C@@H](C)NC1=O)C(=O)N[C@@H](Cc1ccccc1)C(=O)N[C@@H](Cc1ccc2ccccc2c1)C(=O)N[C@@H](CCCNC(=N)N)C(=O)N[C@@H](CCCNC(=N)N)C(=O)N[C@@H](CCCNC(=N)N)C(=O)N[C@@H](CCCNC(=N)N)C(=O)N[C@H](C(=O)N[C@@H](CCCCN)C(N)=O)CNC3=O [Peptide 2, bicyclo[Tm-(D-Ala-Sar-D-Thr-Pip-Nal-Arg-Ala-D-Ala)-Dap-(Phe-Nal-Arg-Arg-Arg-Arg-Dap)]-Lys] ([dA][Sar][dT][Pip][2Nal]RA[dA][Dap]F[2Nal]RRRR[Dap]K-NH2; linker N-9-16 via Trimesoyl)",Ki,PTP1B,54 nM
same,Reduction of potency vs inhibitor 7,Pin1 [1],~10 fold
same,Kd,Pin1 [2],620 nM
"C[C@@H]1NC(=O)[C@H](CCCNC(=N)N)NC(=O)[C@H](Cc2ccc3ccccc3c2)NC(=O)[C@@H]2CCCCN2C(=O)[C@@H]([C@H](C)O)NC(=O)CNC(=O)[C@H](Cc2ccccc2)N(C)C(=O)c2cc3cc(c2)C(=O)NC[C@H](NC(=O)[C@@H](C)NC1=O)C(=O)N[C@@H](Cc1ccccc1)C(=O)N[C@@H](Cc1ccc2ccccc2c1)C(=O)N[C@@H](CCCNC(=N)N)C(=O)N[C@@H](CCCNC(=N)N)C(=O)N[C@@H](CCCNC(=N)N)C(=O)N[C@@H](CCCNC(=N)N)C(=O)N[C@H](C(=O)N[C@@H](CCCCN)C(N)=O)CNC3=O [Peptide 5, bicyclo[Tm-(Mpa-Gly-D-Thr-Pip-Nal-Arg-Ala-D-Ala)-Dap-(Phe-Nal-Arg-Arg-Arg-Arg-Dap)]-Lys] ([NMeF]G[dT][Pip][2Nal]RA[dA][Dap]F[2Nal]RRRR[Dap]K-NH2; linker N-9-16 via Trimesoyl; C-terminus assumed)",Fluorescence increase (released Amc),Jurkat cells,99 FU
N=C(N)NCCC[C@H](NC(=O)[C@H](CCCNC(=N)N)NC(=O)[C@H](CCCNC(=N)N)NC(=O)[C@H](CCCNC(=N)N)NC(=O)[C@H](CCCNC(=N)N)NC(=O)[C@H](CCCNC(=N)N)NC(=O)[C@H](CCCNC(=N)N)NC(=O)[C@H](CCCNC(=N)N)NC(=O)[C@@H](N)CCCNC(=N)N)C(N)=O [Peptide R9],half-life at 50 μM,[3],~30 min
N=C(N)NCCC[C@H](NC(=O)[C@H](CCCNC(=N)N)NC(=O)[C@H](CCCNC(=N)N)NC(=O)[C@H](CCC(N)=O)NC(=O)[C@H](CCCNC(=N)N)NC(=O)[C@H](CCCNC(=N)N)NC(=O)[C@H](CCCCN)NC(=O)[C@H](CCCCN)NC(=O)[C@H](CCCNC(=N)N)NC(=O)CNC(=O)[C@@H](N)Cc1ccc(O)cc1)C(N)=O [Tat],half-life,[3],~30 min
"fluorescein isothiocyanate [FITC, reference compound]","Mean fluorescence intensity (MFI), total intracellular FITC fluorescence",HeLa cells,1200 arbitrary units (AU)
